Legend:
[1] = test system: Human platelet aggregation caused by ADP; experiment: Inhibition of ADP-induced platelet aggregation (Mimic-human PRP); type: cell-based; conditions: 20 μM ADP, human platelet concentrate diluted with PPP, absorption at 595 nm
In short: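 Ki came from non-linear sigmoidal fits of inhibition, measured as the 3-min rise in absorbance at 595 nm after 20 μM ADP, relative to 0/20 μM ADP controls. Platelets (3–4×10^8/mL in PPP-diluted human PRP) were exposed to 0.01–30 μM compound for 20 min at room temperature beforehand.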

Human P2Y12 receptor = biological target: T1, Human P2Y12 receptor (Homo sapiens, UniProt Q9H244); experiment: Human P2Y12 receptor cell membrane binding assay with [3H] 2-Mes-ADP; conditions: 1 nM [3H] 2-Mes-ADP, membranes of HEK cells expressing P2Y12 receptor; read-out: Binding activity (IC50)
T1 construct: expressed in transfected cells; host or cells: HEK cells
T1 sequence (Q9H244 whole entry): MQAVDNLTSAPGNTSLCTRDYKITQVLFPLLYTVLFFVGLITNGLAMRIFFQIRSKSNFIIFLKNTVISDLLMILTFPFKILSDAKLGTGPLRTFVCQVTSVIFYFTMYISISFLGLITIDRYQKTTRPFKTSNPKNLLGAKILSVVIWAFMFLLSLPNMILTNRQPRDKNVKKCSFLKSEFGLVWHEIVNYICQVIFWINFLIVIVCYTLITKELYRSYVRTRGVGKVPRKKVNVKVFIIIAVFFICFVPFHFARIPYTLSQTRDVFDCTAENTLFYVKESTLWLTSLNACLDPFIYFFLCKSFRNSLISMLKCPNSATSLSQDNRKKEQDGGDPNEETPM
In short: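 Competition binding used 1 nM [3H]2-MeS-ADP on P2Y12-expressing HEK cell membranes for 1 h at room temperature, followed by filtration and scintillation counting.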

| SMILES | Ki [1] [nM] | IC50 (Human P2Y12 receptor) [nM] |
| --- | --- | --- |
| CCCc1cc2c(N3CCn4c(nnc4C(F)(F)F)C3)nc(N3CCN(CC4CCCC4)CC3)nc2s1 [Example 1-41, 7-[2-(4-Cyclopentylmethyl-piperazin-1-yl)-6-propyl-thieno[2,3-d]pyrimidin-4-yl]-3-trifluoromethyl-5,6,7,8-tetrahydro-[1,2,4]triazolo[4,3-a]pyrazine] | 1600 | 536 |
| CCCc1cc2c(N3CCn4c(nnc4C(F)(F)F)C3)nc(N3CCN(CC4CCCCC4)CC3)nc2s1 [Example 1-42, 7-[2-(4-Cyclohexylmethyl-piperazin-1-yl)-6-propyl-thieno[2,3-d]pyrimidin-4-yl]-3-trifluoromethyl-5,6,7,8-tetrahydro-[1,2,4]triazolo[4,3-a]pyrazine] | 7300 | 1170 |
| CCCc1cc2c(N3CCn4c(nnc4C(F)(F)F)C3)nc(NCCC(=O)OCC)nc2s1 [Example 1-43, 3-[6-Propyl-4-(3-trifluoromethyl-5,6-dihydro-8H-[1,2,4]triazolo[4,3-a]pyrazin-7-yl)-thieno[2,3-d]pyrimidin-2-ylamino]-propionic acid ethyl ester] | 670 | 134 |
| CCCc1cc2c(N3CCn4c(nnc4C(F)(F)F)C3)nc(NCCC(=O)O)nc2s1 [Example 1-44, 3-[6-Propyl-4-(3-trifluoromethyl-5,6-dihydro-8H-[1,2,4]triazolo[4,3-a]pyrazin-7-yl)-thieno[2,3-d]pyrimidin-2-ylamino]-propionic acid] | 260 | 59 |
| CCCc1cc2c(N3CCn4c(nnc4C(F)(F)F)C3)nc(N3CCCC(C(=O)OCC)C3)nc2s1 (stereo not drawn) [Example 1-45, 1-[6-Propyl-4-(3-trifluoromethyl-5,6-dihydro-8H-[1,2,4]triazolo[4,3-a]pyrazin-7-yl)-thieno[2,3-d]pyrimidin-2-yl]-piperidine-3-carboxylic acid ethyl ester] | 1000 | 340 |
| CCCc1cc2c(N3CCn4c(nnc4C(F)(F)F)C3)nc(N3CCCC(C(=O)O)C3)nc2s1 (stereo not drawn) [Example 1-46, 1-[6-Propyl-4-(3-trifluoromethyl-5,6-dihydro-8H-[1,2,4]triazolo[4,3-a]pyrazin-7-yl)-thieno[2,3-d]pyrimidin-2-yl]-piperidine-3-carboxylic acid] | 58 | 21 |
| CCCc1cc2c(N3CCn4c(nnc4C(F)(F)F)C3)nc(N3CCCC(C(=O)OC(C)C)C3)nc2s1 (stereo not drawn) [Example 1-47, 1-[6-Propyl-4-(3-trifluoromethyl-5,6-dihydro-8H-[1,2,4]triazolo[4,3-a]pyrazin-7-yl)-thieno[2,3-d]pyrimidin-2-yl]-piperidine-3-carboxylic acid isopropyl ester] | 1900 | 280 |
| CCCc1cc2c(N3CCn4c(nnc4C(F)(F)F)C3)nc(N3CCCC(C(=O)OCOC(=O)C(C)(C)C)C3)nc2s1 (stereo not drawn) [Example 1-48, 1-[6-Propyl-4-(3-trifluoromethyl-5,6-dihydro-8H-[1,2,4]triazolo[4,3-a]pyrazin-7-yl)-thieno[2,3-d]pyrimidin-2-yl]-piperidine-3-carboxylic acid 2,2-dimethyl-propionyloxymethyl ester] | 1300 | 400 |
| CCCc1cc2c(N3CCn4c(nnc4C(F)(F)F)C3)nc(N3CCC[C@H]3C(=O)OC)nc2s1 [Example 1-49, (S)-1-[6-Propyl-4-(3-trifluoromethyl-5,6-dihydro-8H-[1,2,4]triazolo[4,3-a]pyrazin-7-yl)-thieno[2,3-d]pyrimidin-2-yl]-pyrrolidine-2-carboxylic acid methyl ester] | 230 | 98 |
| CCCc1cc2c(N3CCn4c(nnc4C(F)(F)F)C3)nc(N3CCC[C@H]3C(=O)O)nc2s1 [Example 1-50, (S)-1-[6-Propyl-4-(3-trifluoromethyl-5,6-dihydro-8H-[1,2,4]triazolo[4,3-a]pyrazin-7-yl)-thieno[2,3-d]pyrimidin-2-yl]-pyrrolidine-2-carboxylic acid] | 40 | 110 |
| CCCc1cc2c(N3CCn4c(nnc4C(F)(F)F)C3)nc(N3CCC[C@H]3C(=O)OC(C)C)nc2s1 [Example 1-51, (S)-1-[6-Propyl-4-(3-trifluoromethyl-5,6-dihydro-8H-[1,2,4]triazolo[4,3-a]pyrazin-7-yl)-thieno[2,3-d]pyrimidin-2-yl]-pyrrolidine-2-carboxylic acid isopropyl ester] | 800 | 220 |
| CCCc1cc2c(N3CCn4c(nnc4C(F)(F)F)C3)nc(N3CCC[C@H]3C(=O)OCOC(=O)C(C)(C)C)nc2s1 [Example 1-52, (S)-1-[6-Propyl-4-(3-trifluoromethyl-5,6-dihydro-8H-[1,2,4]triazolo[4,3-a]pyrazin-7-yl)-thieno[2,3-d]pyrimidin-2-yl]-pyrrolidine-2-carboxylic acid 2,2-dimethyl-propionyloxymethyl ester] | > 4000 | 1030 |
| CCCc1cc2c(N3CCn4c(nnc4C(F)(F)F)C3)nc(N3CCC[C@@H]3C(=O)O)nc2s1 [Example 1-54, (R)-1-[6-Propyl-4-(3-trifluoromethyl-5,6-dihydro-8H-[1,2,4]triazolo[4,3-a]pyrazin-7-yl)-thieno[2,3-d]pyrimidin-2-yl]-pyrrolidine-2-carboxylic acid] | 130 | 143 |
| CCCc1cc2c(N3CCn4c(nnc4C(F)(F)F)C3)nc(N3CCC(C#N)C3)nc2s1 (stereo not drawn) [Example 1-55, 1-[6-Propyl-4-(3-trifluoromethyl-5,6-dihydro-8H-[1,2,4]triazolo[4,3-a]pyrazin-7-yl)-thieno[2,3-d]pyrimidin-2-yl]-pyrrolidine-3-carbonitrile] | 27 | 60 |
| CCCc1cc2c(N3CCn4c(nnc4C(F)(F)F)C3)nc(N3CC[C@H](C(=O)O)C3)nc2s1 [Example 1-57, (S)-1-[6-Propyl-4-(3-trifluoromethyl-5,6-dihydro-8H-[1,2,4]triazolo[4,3-a]pyrazin-7-yl)-thieno[2,3-d]pyrimidin-2-yl]-pyrrolidine-3-carboxylic acid] | 54 | 15 |
| CCCc1cc2c(N3CCn4c(nnc4C(F)(F)F)C3)nc(N3CC[C@H](C(=O)OC(C)C)C3)nc2s1 [Example 1-58, (S)-1-[6-Propyl-4-(3-trifluoromethyl-5,6-dihydro-8H-[1,2,4]triazolo[4,3-a]pyrazin-7-yl)-thieno[2,3-d]pyrimidin-2-yl]-pyrrolidine-3-carboxylic acid isopropyl ester] | 700 | 190 |
| CCCc1cc2c(N3CCn4c(nnc4C(F)(F)F)C3)nc(N3CC[C@H](C(=O)OCOC(=O)C(C)(C)C)C3)nc2s1 [Example 1-59, (S)-1-[6-Propyl-4-(3-trifluoromethyl-5,6-dihydro-8H-[1,2,4]triazolo[4,3-a]pyrazin-7-yl)-thieno[2,3-d]pyrimidin-2-yl]-pyrrolidine-3-carboxylic acid 2,2-dimethyl-propionyloxymethyl ester] | 1450 | 440 |
| CCCc1cc2c(N3CCn4c(nnc4C(F)(F)F)C3)nc(N3CC[C@@H](C(=O)O)C3)nc2s1 [Example 1-61, (R)-1-[6-Propyl-4-(3-trifluoromethyl-5,6-dihydro-8H-[1,2,4]triazolo[4,3-a]pyrazin-7-yl)-thieno[2,3-d]pyrimidin-2-yl]-pyrrolidine-3-carboxylic acid] | 7300 | 11 |
